Measurements from US9096632B2, “Modulator of activity of adenylate cyclase” (Public University Corporation Yokohama City University, priority 2010, dated 2015).

Key:
[1] = system: pacing-induced atrial fibrillation; assay: Antiarrhythmic action: pacing-induced transient atrial fibrillation; format: in vivo, mouse; conditions: vidarabine 15 mg/kg/day, V2E, V3E, V5E 19.8 mg/kg/day, osmotic mini-pump; vs DMSO alone
Description: FIG. 14 Antiarrhythmic (atrial fibrillation inhibition) action. To healthy wild type mice (C57BL/6N), vidarabine (15 mg/kg/day), V2E, V3E or V5E (19.8 mg/kg/day) (all of which are dissolved in DMSO) or DMSO alone was administered with an osmotic mini-pump (Alzet 2001). Subsequently, voltage stimuli of 2.5 mA were applied to the mice for 60 seconds at intervals of 30 milliseconds with a transesophageal catheter (atrial tachypacing; Circ Res 97, 62-69, 2005) to induce transient atrial fibrillation. The duration of atrial fibration until the induced transient atrial fibrillation converted to a normal sinus rhythm was measured (n=4-8, means±SE).
After mice were inhalationally anesthetized with isoflurane, an electrode catheter (Millar: Model EPR800; size 1.1 F; length 4.5 cm) connected to an electrocardiogram amp for the purpose of recording intracardiac electrocardiogram was slowly inserted through the oral cavity into the esophagus, and fixed at a site where maximum P wave was recorded. The thus fixed electrode catheter was connected to an electrostimulator carefully enough to avoid any movement of its position. Thereafter, body surface electrogram was recorded by II lead. Subsequently, voltage stimuli of 2.5 mA were applied to mice for 60 seconds at intervals of 30 milliseconds to thereby induce transient atrial fibrillation. The time period during which the following phenomena can be confirmed from body surface electrogram was regarded as the duration of atrial P wave disappears from the baseline and the R-R intervals are not regular but produce arrhythmic pulse.
To healthy WT (C57BL/6N), each of vidarabine (15 mg/kg/day), V2E, V3E and V5E (19.8 mg/kg/day) (all of which were dissolved in DMSO) or DMSO alone was administered with an osmotic mini-pump (Alzet 2001). Subsequently, atrial fibrillation was induced under the above-described conditions, and the duration of atrial fibrillation until the induced atrial fibrillation converted to a normal sinus rhythm was measured (FIG. 14). This experiment was completed after confirming that the normal sinus rhythm was lasting for at least 5 minutes and that there was no recurrence of atrial fibrillation. For information, the maximum dose of vidarabine approved for use in the treatment of herpes in humans is 15 mg/kg/day for 10 days.

[2] = target: T1, adenylyl cyclase activity in the heart; assay: Membrane adenylyl cyclase assay, WT heart membrane, forskolin-stimulated; format: biochemical, mouse; conditions: WT; estimated from 10, 50 and 100 μM; 50 μM forskolin
T1 construct: IC50 on adenylyl cyclase activity in the heart; other: WT; estimated from 10, 50 and 100 μM
From the text: FIG. 3 Inhibitory effects of individual vidarabine derivatives on adenylyl cyclase activity in the striatum, heart and lung. With adenylyl cyclase activity in the presence of […] but in the absence of inhibitors being taken as 100, the reductions in adenylyl cyclase activity upon treatment with various inhibitors at the concentrations indicated on the horizontal axis are shown (n=4, means±S.E.).
<Membrane Adenylyl Cyclase Assay>
Striatal, cardiac and pulmonary tissues were removed from WT (C57BL) (Charles River Laboratories Japan, Inc.) and AC5KO (Circ. Res. 93: 364-371, 2003), both of which were 12-15 weeks of age after birth, and individual membrane protein fractions were prepared therefrom. The resultant membrane preparations were incubated with a reaction mixture (20 mM HEPES, pH 8, 5 mM MgCl2, 0.5 mM EDTA, pH 8, 0.1 mM ATP, 1 mM phospho creatine, 8 U/mL creatine phosphor kinase, 200 μM IBMX) at 30° C. in the presence of forskolin (an activator of adenylyl cyclase) (50 μM, Sigma Cat. No. F6886) and various compounds, to thereby allow production of cAMP. In this assay, striatum- or lung-derived membrane preparations were used in an amount of 1 μg, and heart-derived membrane preparation was used in an amount of 2 μg. 15 minutes (striatum and lung) or 30 minutes (heart) after its start, the reaction was terminated by adding trichloroacetate (TCA) solution to give a final concentration of 5%. Then, the protein was precipitated by centrifugation (13,500×g, 10 min).
In both membrane adenylyl cyclase assay and cAMP accumulation assay, the amount of cAMP contained in TCA solution was determined by radioimmunoassay using […].

[3] = system: rat embryo cultured cardiac myocytes; assay: TUNEL staining of cardiac myocytes (isoproterenol-induced apoptosis); format: cell-based; conditions: 10^−5 M compound with isoproterenol 10^−5 M, 48 hours
Description: FIG. 10 TUNEL staining of cardiac myocytes. To a culture both of neonatal rat cardiac myocytes, isoproterenol (10^−5 M) either alone or in combination with vidarabine, V2E, V3E or VSE was added for stimulation (48 hours). Then, apoptosis positive cells were evaluated by TUNEL staining.
<TUNEL Staining of Cardiac Myocytes>
A culture broth of rat embryo cultured cardiac myocytes (pregnant Wistar rats were purchased from Nippon SLC) was stimulated (48 hours) with isoproterenol (10^−5 M) either alone or in combination with vidarabine, V2E, V3E or V5E (10^−5 M). Then, apoptosis positive cells were evaluated by TUNEL staining.

H9c2 cells = assay: cAMP accumulation assay in H9c2 cells, forskolin stimulation; format: cell-based, rat; conditions: 50 μM compound, 100 μM forskolin, n=1, preliminary
Description: […] <H9c2 Cultured Cells> […] No. D6429) in the presence of 95% air+5% CO2 at 37° C. 80-90% confluent H9c2 cells were suspended in 10% FBS-containing DMEM. The cell suspension (500 μl) was added to each well of 24-well plates to give a density of 40,000 cells/well, and incubated overnight at 37° C. Subsequently, cells were incubated in serum-free DMEM (500 μl/well) for 48 hours and subjected to cAMP accumulation assay. <cAMP Accumulation Assay> H9c2 cells were incubated in the presence of 500 μM IBMX for 20 minutes at 37° C. Then, various vidarabine derivatives were added to the culture broth to give a concentration of 50 μM. Cells were further incubated for 10 minutes at 37° C. […] Cells were further incubated at 4° C. overnight. Similar experiments were also carried out on rat adult cultured cardiac myocytes under stimulation with various vidarabine derivatives (10 μM) and forskolin (5 μM). In both membrane adenylyl cyclase assay and cAMP accumulation assay, the amount of cAMP contained in TCA solution was determined by radioimmunoassay using […].

Row | SMILES | time for pacing-induced atrial fibrillation to convert to a normal sinus rhythm [1] | IC50 [2] [µM] | inhibitory effect on isoproterenol stimulation-induced apoptosis (TUNEL positive cells) [3] | level of cAMP accumulated in response to forskolin (relative to control) (H9c2 cells)
1 | CN(C)CC(=O)OC1C(O)C(CO)OC1n1cnc2c(N)ncnc21 (stereo not drawn) [V2E, 2-O—(N,N-Dimethylglycyl)Vidarabine] | significantly shortened | 17.8 | comparable to the effect of vidarabine | about 57.1%
2 | CN(C)CC(=O)OC1C(CO)OC(n2cnc3c(N)ncnc32)C1O (stereo not drawn) [V3E, 3-O—(N,N-Dimethylglycyl)Vidarabine] | significantly shortened | 19.9 | comparable to the effect of vidarabine | about 45.7%
3 | CN(C)CC(=O)OCC1OC(n2cnc3c(N)ncnc32)C(O)C1O (stereo not drawn) [V5E, 5-O—(N,N-Dimethylglycyl)Vidarabine] | significantly shortened | 42.9 | comparable to the effect of vidarabine | about 82.5%
4 | Nc1ncnc2c1ncn2[C@@H]1O[C@H](CO)[C@@H](O)[C@@H]1O [vidarabine, reference compound] | significantly shortened | 7.7 |  | about 35.1%
